Measured values reported in paper PMC7316778 (Nature Communications, 2020).
Several values for one entry are separate records, joined by “and”; a condition that tells them apart may be missing. Equal entries are not always repeated. Where two headings read alike, the source gives them in different places.

Experiments:
[1] = tested on: FES^S700C HL-60 cells; assay: Proliferation ratio during macrophage differentiation; type: cell-based, human; settings: for Proliferation ratio: Figure 6e, S700C
Protocol: (§1) Cells were pretreated with vehicle or WEL028 (100 or 1000 nM, 1 h) prior to induction of differentiation towards monocytes/macrophages with PMA (16 nM, 48 h). Medium was refreshed with growth medium containing WEL028 and PMA after 24 h to maintain full FES inhibition. […] Threshold for CD11b-positive cells was determined using isotype control antibody. […] Kinases with native cysteine at DFG-1 position are shown in bold. All data represent means ± SEM.
(§2) Cell lines were purchased at ATCC (HEK293T: ATCC® CRL-11268™, U2OS: ATCC® HTB-96™, HL-60: ATCC® CCL-240™) and were tested on regular basis for mycoplasma contamination. Cultures were discarded after 2–3 months of use. HEK293T (human embryonic kidney) and U2OS (human osteosarcoma) cells were cultured at 37 °C under 7% CO2 in DMEM containing phenol red, stable glutamine, 10% (v/v) high iron newborn calf serum (Seradigm), penicillin and streptomycin (200 μg/mL each; Duchefa). Medium was refreshed every 2–3 days and cells were passaged two times a week at 80–90% confluence. HL-60 (human promyeloblast) cells were cultured at 37 °C under 5% CO2 in HEPES-supplemented RPMI containing phenol red, stable glutamine, 10% (v/v) fetal calf serum (Biowest), penicillin and streptomycin (200 μg/mL each), unless stated otherwise. Cell density was maintained between 0.2 × 10^6 and 2.0 × 10^6 cells/mL. Cell viability was assessed by Trypan Blue exclusion and quantification using a TC20™ Automated Cell Counter (Bio-Rad).

[2] = tested on: WT HL-60 cells; assay: as above; type: cell-based, human; settings: Figure 6e
Protocol: as §1, §2

[3] = target: T1, BRSK2 (Homo sapiens, UniProt Q8IWQ3); assay: SelectScreen kinase assay
T1 sequence (Q8IWQ3 1-736): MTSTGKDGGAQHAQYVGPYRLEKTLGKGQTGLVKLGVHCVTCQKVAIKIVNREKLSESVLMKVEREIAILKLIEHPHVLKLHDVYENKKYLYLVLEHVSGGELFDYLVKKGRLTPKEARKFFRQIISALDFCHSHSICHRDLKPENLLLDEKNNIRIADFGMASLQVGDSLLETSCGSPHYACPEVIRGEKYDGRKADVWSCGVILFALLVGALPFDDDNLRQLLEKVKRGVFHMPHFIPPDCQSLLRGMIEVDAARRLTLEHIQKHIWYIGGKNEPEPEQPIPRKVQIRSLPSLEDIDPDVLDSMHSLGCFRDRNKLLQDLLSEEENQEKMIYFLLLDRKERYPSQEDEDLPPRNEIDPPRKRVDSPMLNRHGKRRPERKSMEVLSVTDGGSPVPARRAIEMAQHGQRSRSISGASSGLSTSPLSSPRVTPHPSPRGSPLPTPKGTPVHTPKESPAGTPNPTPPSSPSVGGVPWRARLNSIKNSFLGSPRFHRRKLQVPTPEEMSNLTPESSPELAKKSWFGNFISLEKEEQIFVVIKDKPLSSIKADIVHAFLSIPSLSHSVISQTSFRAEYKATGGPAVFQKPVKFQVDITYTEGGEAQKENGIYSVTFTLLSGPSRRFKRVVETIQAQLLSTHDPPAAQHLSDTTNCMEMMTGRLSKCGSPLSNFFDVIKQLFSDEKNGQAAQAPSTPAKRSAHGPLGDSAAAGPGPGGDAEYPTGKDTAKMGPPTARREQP
Protocol: (§3) Selectivity profiling assays were performed by the Invitrogen SelectScreen™ Services. […] The concentration of ATP was selected to be equal to the KM, unless indicated otherwise.

[4] = target: T2, CASK (Homo sapiens, UniProt O14936); assay: SelectScreen kinase assay; settings: for Inhibition at 1 µM (%): CASK, LanthaScreen Binding
T2 sequence (O14936 1-926): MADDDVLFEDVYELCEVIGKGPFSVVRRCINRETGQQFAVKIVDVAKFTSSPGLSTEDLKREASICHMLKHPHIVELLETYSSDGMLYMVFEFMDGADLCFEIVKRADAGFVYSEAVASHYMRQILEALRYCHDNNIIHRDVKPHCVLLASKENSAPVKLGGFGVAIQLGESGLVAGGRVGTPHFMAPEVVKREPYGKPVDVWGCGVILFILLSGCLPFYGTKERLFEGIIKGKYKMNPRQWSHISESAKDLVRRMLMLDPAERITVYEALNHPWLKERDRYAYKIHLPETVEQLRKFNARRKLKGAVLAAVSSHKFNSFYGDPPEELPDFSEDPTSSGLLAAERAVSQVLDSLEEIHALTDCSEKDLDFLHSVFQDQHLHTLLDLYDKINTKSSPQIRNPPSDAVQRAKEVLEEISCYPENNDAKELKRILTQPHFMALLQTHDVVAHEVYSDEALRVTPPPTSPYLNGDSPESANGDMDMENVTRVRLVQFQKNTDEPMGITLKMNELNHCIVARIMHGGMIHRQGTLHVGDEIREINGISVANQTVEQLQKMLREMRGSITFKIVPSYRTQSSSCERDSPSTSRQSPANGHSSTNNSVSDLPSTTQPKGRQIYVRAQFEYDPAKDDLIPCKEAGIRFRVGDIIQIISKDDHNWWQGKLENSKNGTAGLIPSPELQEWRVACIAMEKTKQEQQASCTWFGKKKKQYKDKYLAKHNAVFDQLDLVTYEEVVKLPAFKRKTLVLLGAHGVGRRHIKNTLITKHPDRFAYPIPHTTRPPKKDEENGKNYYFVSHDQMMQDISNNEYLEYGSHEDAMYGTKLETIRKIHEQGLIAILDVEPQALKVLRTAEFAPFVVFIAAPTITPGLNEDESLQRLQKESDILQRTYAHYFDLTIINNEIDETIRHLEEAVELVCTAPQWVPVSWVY
Protocol: as §3

[5] = target: FLT4 (VEGFR3) (Homo sapiens, UniProt P35916); assay: SelectScreen kinase assay
Sequence of FLT4 (VEGFR3) (Homo sapiens, UniProt P35916) (P35916 25-1363, species assumed): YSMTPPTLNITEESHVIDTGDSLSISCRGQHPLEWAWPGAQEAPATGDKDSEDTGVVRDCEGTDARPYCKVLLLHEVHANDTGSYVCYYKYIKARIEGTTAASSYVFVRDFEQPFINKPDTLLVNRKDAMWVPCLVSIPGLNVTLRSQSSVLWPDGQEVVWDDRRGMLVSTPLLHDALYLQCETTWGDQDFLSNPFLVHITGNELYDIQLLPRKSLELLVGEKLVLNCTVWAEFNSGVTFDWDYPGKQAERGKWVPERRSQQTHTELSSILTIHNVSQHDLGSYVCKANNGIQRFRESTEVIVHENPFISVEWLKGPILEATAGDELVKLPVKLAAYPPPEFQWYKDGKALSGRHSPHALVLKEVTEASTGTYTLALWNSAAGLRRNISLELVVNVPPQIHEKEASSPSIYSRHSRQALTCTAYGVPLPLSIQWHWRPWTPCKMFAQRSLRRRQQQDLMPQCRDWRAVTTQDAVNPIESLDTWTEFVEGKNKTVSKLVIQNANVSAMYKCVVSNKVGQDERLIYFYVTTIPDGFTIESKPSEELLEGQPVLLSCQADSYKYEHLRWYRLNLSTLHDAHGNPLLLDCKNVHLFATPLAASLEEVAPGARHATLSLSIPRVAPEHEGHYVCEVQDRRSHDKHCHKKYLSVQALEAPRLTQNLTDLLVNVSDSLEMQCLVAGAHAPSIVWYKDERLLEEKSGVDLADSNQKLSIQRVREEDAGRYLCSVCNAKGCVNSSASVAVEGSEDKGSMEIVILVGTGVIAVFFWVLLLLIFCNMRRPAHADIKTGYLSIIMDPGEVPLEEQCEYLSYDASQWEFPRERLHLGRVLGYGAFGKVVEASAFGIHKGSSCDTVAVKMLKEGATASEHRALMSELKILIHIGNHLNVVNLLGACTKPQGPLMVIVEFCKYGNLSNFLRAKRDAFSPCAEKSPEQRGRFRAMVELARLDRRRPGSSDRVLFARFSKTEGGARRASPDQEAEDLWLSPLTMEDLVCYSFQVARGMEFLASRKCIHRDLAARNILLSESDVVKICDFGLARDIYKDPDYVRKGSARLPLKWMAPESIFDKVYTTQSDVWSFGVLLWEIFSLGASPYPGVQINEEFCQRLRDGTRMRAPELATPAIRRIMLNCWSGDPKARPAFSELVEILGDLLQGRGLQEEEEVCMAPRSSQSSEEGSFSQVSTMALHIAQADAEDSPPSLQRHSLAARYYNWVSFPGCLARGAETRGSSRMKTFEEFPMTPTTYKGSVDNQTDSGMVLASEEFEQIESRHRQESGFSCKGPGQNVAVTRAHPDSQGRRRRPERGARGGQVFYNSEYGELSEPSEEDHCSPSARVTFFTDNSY
Protocol: as §3

[6] = tested on: FLT4 (VEGFR3); assay: SelectScreen kinase assay; settings: IC50 on that kinase divided by IC50 on FES^S700C
Protocol: as §3

[7] = target: MAP4K4 (HGK) (Homo sapiens, UniProt O95819); assay: SelectScreen kinase assay; settings: 1 h, 1 μM WEL028, 1 h preincubation
Sequence of MAP4K4 (HGK) (O95819 whole entry): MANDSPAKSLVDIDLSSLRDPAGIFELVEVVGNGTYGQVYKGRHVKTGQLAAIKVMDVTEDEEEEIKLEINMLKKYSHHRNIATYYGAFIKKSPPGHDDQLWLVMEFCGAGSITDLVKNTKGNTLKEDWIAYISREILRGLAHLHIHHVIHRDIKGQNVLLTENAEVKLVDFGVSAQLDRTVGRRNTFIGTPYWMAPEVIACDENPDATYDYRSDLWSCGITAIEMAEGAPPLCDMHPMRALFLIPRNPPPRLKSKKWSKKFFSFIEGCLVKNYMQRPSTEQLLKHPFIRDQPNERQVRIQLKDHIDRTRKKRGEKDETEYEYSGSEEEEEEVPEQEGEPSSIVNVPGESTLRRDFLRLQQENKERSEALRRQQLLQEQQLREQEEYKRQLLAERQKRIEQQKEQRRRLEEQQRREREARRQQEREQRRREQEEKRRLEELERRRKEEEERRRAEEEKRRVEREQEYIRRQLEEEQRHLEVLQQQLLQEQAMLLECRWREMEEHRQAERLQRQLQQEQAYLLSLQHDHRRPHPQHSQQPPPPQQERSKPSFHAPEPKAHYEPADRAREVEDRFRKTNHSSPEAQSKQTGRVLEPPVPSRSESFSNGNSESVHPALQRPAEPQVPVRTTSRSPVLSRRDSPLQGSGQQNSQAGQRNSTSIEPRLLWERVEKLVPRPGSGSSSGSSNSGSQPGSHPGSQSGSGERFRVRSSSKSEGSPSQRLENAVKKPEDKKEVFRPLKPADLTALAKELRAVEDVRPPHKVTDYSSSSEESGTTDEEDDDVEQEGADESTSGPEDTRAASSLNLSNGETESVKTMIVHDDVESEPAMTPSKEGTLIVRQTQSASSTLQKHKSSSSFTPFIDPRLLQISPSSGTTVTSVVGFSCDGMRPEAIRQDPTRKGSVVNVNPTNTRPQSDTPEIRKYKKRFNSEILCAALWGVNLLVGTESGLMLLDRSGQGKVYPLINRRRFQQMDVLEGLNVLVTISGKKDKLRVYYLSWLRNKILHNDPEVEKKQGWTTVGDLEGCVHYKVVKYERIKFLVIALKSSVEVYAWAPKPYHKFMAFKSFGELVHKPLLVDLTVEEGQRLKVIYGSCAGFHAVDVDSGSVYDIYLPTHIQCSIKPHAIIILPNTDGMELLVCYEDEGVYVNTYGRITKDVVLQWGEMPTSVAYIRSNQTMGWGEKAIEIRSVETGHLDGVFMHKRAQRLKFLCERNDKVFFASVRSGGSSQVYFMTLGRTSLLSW
Protocol: as §3

[8] = 1 h, 1 μM WEL028, 1 h preincubation

Q: `C#CCOc1ccc(Nc2ncc(Cl)c(Nc3ccccc3NC(=O)C=C)n2)c(OC)c1` [Compound 6] was tested. Which Cell proliferation ([1]; 100 nM WEL028 vs vehicle) did it give?
A: The Cell proliferation was “decreased to identical levels”.

Q: What about the Cell proliferation ([1]; 1 µM WEL028) of the same molecule?
A: The Cell proliferation was “less pronounced decrease in proliferation”.

Q: And the Proliferation ratio ([1]; WEL028 100 nM)?
A: The Proliferation ratio was 1.219 and 1.226 and 1.503.

Q: And the Proliferation ratio ([1]; WEL028 1 µM)?
A: The Proliferation ratio was 2.372 and 2.5075 and 3.084.

Q: What about the Proliferation ratio ([2]; WEL028 100 nM) of the same molecule?
A: Its Proliferation ratio is 1.995 and 1.877 and 1.706.

Q: What about the Proliferation ratio ([2]; WEL028 1 µM) of the same molecule?
A: Its Proliferation ratio is 2.7225 and 2.805 and 3.0525.

Q: What about the inhibition at 1 µM [3, 8] of the same molecule?
A: The inhibition at 1 µM was 7%.

Q: And the “Inhibition at 1 µM (%)” value ([3]; BRSK2, 1 µM, LanthaScreen Binding, listed as WEL028, 1 µM)?
A: The value was 8%.

Q: What about the inhibition at 1 µM ([3]; read-out: Inhibition at 1 µM (%), BRSK2, 1 µM, LanthaScreen Binding) of the same molecule?
A: The inhibition at 1 µM was 7%.

Q: What about the inhibition at 1 µM [4, 8] of the same molecule?
A: The inhibition at 1 µM was -7%.

Q: And the “Inhibition at 1 µM (%)” value [4]?
A: Its value is -11%.

Q: What about the “Inhibition at 1 µM (%)” value ([4]; listed as WEL028, 1 µM) of the same molecule?
A: The value was -4%.

Q: What about the IC50 [5] of the same molecule?
A: Its IC50 is 200 nM.

Q: And the inhibition at 1 µM [5, 8]?
A: Its inhibition at 1 µM is 120%.

Q: What about the inhibition at 10 µM ([5]; 1 h, log[inhibitor] (M) -5.00, ZLYTE, ATP Km app) of the same molecule?
A: Its inhibition at 10 µM is 103%.

Q: What about the inhibition at 3.31 µM ([5]; 1 h, log[inhibitor] (M) -5.48, ZLYTE, ATP Km app) of the same molecule?
A: Its inhibition at 3.31 µM is 100%.

Q: What about the inhibition at 1.12 µM ([5]; 1 h, log[inhibitor] (M) -5.95, ZLYTE, ATP Km app) of the same molecule?
A: Its inhibition at 1.12 µM is 95%.

Q: What about the inhibition at 0.372 µM ([5]; 1 h, log[inhibitor] (M) -6.43, ZLYTE, ATP Km app) of the same molecule?
A: The inhibition at 0.372 µM was 70%.

Q: And the inhibition at 0.123 µM ([5]; 1 h, log[inhibitor] (M) -6.91, ZLYTE, ATP Km app)?
A: The inhibition at 0.123 µM was 38%.

Q: What about the inhibition at 0.04074 µM ([5]; 1 h, log[inhibitor] (M) -7.39, ZLYTE, ATP Km app) of the same molecule?
A: Its inhibition at 0.04074 µM is 9%.

Q: And the inhibition at 0.0138 µM ([5]; 1 h, log[inhibitor] (M) -7.86, ZLYTE, ATP Km app)?
A: Its inhibition at 0.0138 µM is 4%.

Q: What about the inhibition at 0.00151 µM ([5]; 1 h, log[inhibitor] (M) -8.82, ZLYTE, ATP Km app) of the same molecule?
A: Its inhibition at 0.00151 µM is 2%.

Q: What about the inhibition at 1 µM ([5]; read-out: Inhibition at 1 µM (%), FLT4 (VEGFR3), 1 µM, ZLYTE, ATP Km app) of the same molecule?
A: Its inhibition at 1 µM is 121%.

Q: And the Apparent fold selectivity [6]?
A: Its Apparent fold selectivity is 50 fold.

Q: What about the inhibition at 1 µM [7] of the same molecule?
A: Its inhibition at 1 µM is 7%.
